These results are taken from patent US9446047B2, “Substituted 2,3-dihydro-1H-inden-1-one retinoic acid-related orphan nuclear receptor antagonists for treating multiple sclerosis” (Arrien Pharmaceuticals LLC, priority 2013, dated 2016).

SMILES strings stand for the structures. A value given as a limit tells only on which side of the number the result lay.

Assay [1] addresses T1, RORγt (Homo sapiens, UniProt P51449).
T1 construct: host or cells: IL-17A Prom/LUCPorter HEK 293 cell line (IMGENEX, IML-301)
T1 sequence (P51449 1-497 isoform P51449-2): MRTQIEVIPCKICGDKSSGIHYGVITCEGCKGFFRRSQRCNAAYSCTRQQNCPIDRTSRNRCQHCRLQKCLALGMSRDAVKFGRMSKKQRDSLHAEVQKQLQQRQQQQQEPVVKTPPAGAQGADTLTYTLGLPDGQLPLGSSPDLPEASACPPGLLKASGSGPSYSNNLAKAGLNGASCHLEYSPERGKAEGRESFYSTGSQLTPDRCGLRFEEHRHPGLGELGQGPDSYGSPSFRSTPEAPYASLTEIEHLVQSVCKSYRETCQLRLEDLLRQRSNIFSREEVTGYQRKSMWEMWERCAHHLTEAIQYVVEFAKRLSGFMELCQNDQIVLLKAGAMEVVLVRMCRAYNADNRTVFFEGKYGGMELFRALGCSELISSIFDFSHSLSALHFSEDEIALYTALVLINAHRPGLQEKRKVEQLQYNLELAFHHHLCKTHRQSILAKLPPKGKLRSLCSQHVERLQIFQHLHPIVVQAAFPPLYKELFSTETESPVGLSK
Briefly: RORγt-activated IL-17A Prom/LUCPorter HEK 293 cells luciferase reporter assay. The class given is cell-based. The following applies: IL-17A Prom/LUCPorter HEK 293 cells transfected with RORγt, 16 h; read-out: RORγt Cell Specific. The method, then: Antagonistic (or inverse agonistic) effects of the test compounds on the RORγt-activated IL-17A Prom/LUCPorter™ HEK 293 cells were analyzed and IC50 of each compound was evaluated. […] Luciferase activity was analyzed using the luciferase reporter assay reagent (IMGENEX, LS100). The data were analyzed using Excel and Prism software. Percent activity was defined as 100×(1−(Well−Control A)/(Control B−Control A)), where Control A was the wells containing cells transfected with RORγt and Control B was the wells containing non-transfected cells. Both Controls A and B were treated with vehicle alone.

Assay [2] deals with IL-17 release from CD4+ T cells. Briefly: Cytokine IL-17 estimation by HTRF, IL-17 release from CD4+ T cells. The class given is cell-based. The following applies: Homo sapiens, IL-17 release from CD4+ T cells, HTRF, read-out: IL-17 Inhibition. The source says:
The assay was designed to assess the potency of test compounds on IL-17 cytokine release from CD4+ T cells. In order to aid in the identification of potent inhibitors, the IC50's determined for the test compounds IL-17 release from CD4+ T cells through the generation of 10 point Dose Response Curves (DRC). Assay methods used to quantify IL-17 secretion is HTRF (Homogenous Time Resolved Fluorescence). IL-17 secreted is detected by anti-IL-17 MAb labeled with XL665, the second MAb labeled with Cryptate, which binds to specific epitopes of human IL-17. Upon close proximity of both acceptor and donor energy transfer (FRET) occurs. This technique has been further enhanced by using long-lived labels combined with the detection on a time-resolved fluorescence basis, allowing […] of prompt fluorescence interferences.
The assay was performed according to manufacturer's instruction. All the reagents were reconstituted according to instructions provided. The reagents were dispensed into a half area 96-well plate in the following order: […] or sample, IL-17 MAbXL665 and 5 μL IL-17 Cryptate. For the negative control, the standard or sample is replaced by […]. The plate is covered with a plate sealer and incubated at rt for 2 h. Following incubation, the plate sealer is removed and the plate is read using HTRF protocol on Envision Microplate reader. All of the data analysis was carried out using Microsoft Excel (2010) and IC50 was determined using GraphPad Prism 4 software. % Inhibition of the test compounds were determined utilizing the following formula: % Inhibition=100−(100*(Average Test Compound Counts−Average Negative Control Counts)/(Average Positive Control Counts−Average Negative Control Counts)).
We have established robust in vitro cell-based HTRF assay for the activation and stimulation of CD4+ T lymphocytes to T helper 17 (Th17) cell differentiation and IL-17 production.

For assay [3], the target named is T2, RORγ-LBD (RORγt) (Homo sapiens, UniProt P51449).
T2 construct: the 6-His-(GST) RORγ-LBD was used which expressed and purified from baculovirus infected Sf-21 insect cells; made in house; host or cells: baculovirus-infected Sf-21 insect cells
T2 sequence (P51449 269-508 limits assumed): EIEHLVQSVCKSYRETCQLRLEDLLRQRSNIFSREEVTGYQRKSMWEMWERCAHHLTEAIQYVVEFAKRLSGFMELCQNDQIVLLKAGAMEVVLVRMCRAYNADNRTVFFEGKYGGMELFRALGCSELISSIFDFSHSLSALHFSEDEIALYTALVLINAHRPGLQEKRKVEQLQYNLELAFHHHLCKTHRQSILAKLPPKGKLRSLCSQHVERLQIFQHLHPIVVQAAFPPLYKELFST
Kind of assay: TR-FRET RORγt Binding Assay. The settings on record: 6-His(GST)RORγ-LBD, SRC1_2 peptide, read-out: RORγt Binding. As to the method: TR-FRET RORγt Binding Assay: RORγ-LBD contains a 6-His and GST tag peptide from SRC1-2 an aminoterminal biotinyl-[…] was employed and the 6-His-(GST) RORγ-LBD was used which expressed and purified from baculovirus infected Sf-21 insect cells from Invitrogen and purified using glutathione sepharose. […] The peptide binding due to dose-curves of compounds was added the 0.1% DMSO. Fluorescence at wavelength 340 nm was read in each well of […] using an Envision fluorescence reader in Time Resolved mode after overnight incubation at 4° C.

Consider `COc1cc2c(cc1N1CCNCC1)CC(Cc1ncccc1C(F)(F)F)C2=O` (stereo not drawn) [compound 164], for which the IC50 in assay [1] is above 1 µM; in assay [2] it was below 0.5 µM; in assay [3], below 0.5 µM.
Turning to `COc1ccc2c(c1OC)CC(Cc1ncccc1C(F)(F)F)C2=O` (stereo not drawn) [compound 169], the IC50 in assay [1] was above 1 µM; in assay [2], below 0.5 µM; in assay [3] it was above 1 µM.
Regarding `COc1cc2c(cc1N1CCOCC1)CC(Cc1c(F)ccc(C(O)(C(F)(F)F)C(F)(F)F)c1F)C2=O` (stereo not drawn) [compound 232, 2-(2,6-difluoro-3-(1,1,1,3,3,3-hexafluoro-2-hydroxypropan-2-yl)benzyl)-6-methoxy-5-morpholino-2,3-dihydro-1H-inden-1-one], the IC50 in assay [1], in assay [2] and in assay [3] was below 0.5 µM throughout.
As to `COc1cc2c(cc1N1CCOCC1)CC(Cc1ccc(C(F)(F)F)nc1)C2=O` (stereo not drawn) [compound 71, 6-methoxy-5-morpholino-2-((6-(trifluoromethyl)pyridin-3-yl)methyl)-2,3-dihydro-1H-inden-1-one], the IC50 in assay [1] was above 10 µM; in assay [2], above 1 µM; in assay [3] it was above 10 µM.
As for `COc1cc2c(cc1N1CCOCC1)CC(Cc1ccc(F)cc1F)C2=O` (stereo not drawn) [compound 28, 2-(2,4-difluorobenzyl)-6-methoxy-5-morpholino-2,3-dihydro-1H-inden-1-one], the IC50 was above 10 µM in assay [1], above 1 µM in assay [2] and above 1 µM in assay [3].
For the compound `CCS(=O)(=O)Oc1cc2c(cc1OC)CC(Cc1ccc(SC(F)(F)F)cc1)C2=O` (stereo not drawn) [compound 188], the IC50 in assay [1] was above 1 µM; in assay [2], below 0.5 µM; in assay [3], below 0.5 µM.
`COc1cc2c(cc1N1CCN(C)CC1)CC(Cc1cncc(C(O)(C(F)(F)F)C(F)(F)F)c1)C2=O` (stereo not drawn) [compound 256]: the IC50 in assay [1], in assay [2] and in assay [3] was below 0.5 µM in each case.
As for `COc1cc2c(cc1N1CCC(C)CC1)CC(Cc1cccc(C(F)(F)F)c1)C2=O` (stereo not drawn) [compound 154], the values for the IC50 in assay [1], in assay [2] and in assay [3] were above 1 µM, below 0.5 µM and above 1 µM, respectively.
As for `COc1cc2c(cc1N1CCN(C)CC1)CC(Cc1cc(C(F)(F)F)ccc1Cl)C2=O` (stereo not drawn) [compound 161, 2-(2-chloro-5-(trifluoromethyl)benzyl)-6-methoxy-5-(4-methylpiperazin-1-yl)-2,3-dihydro-1H-inden-1-one], the IC50 in assay [1] is below 0.5 µM; in assay [2], above 1 µM; in assay [3], above 1 µM.
Turning to `COc1ccc2c(c1Cl)CC(Cc1ccc(SC(F)(F)F)cc1)C2=O` (stereo not drawn) [compound 177], the IC50 in assay [1] is above 1 µM; in assay [2], below 0.5 µM; in assay [3], below 0.5 µM.
For `COc1ccc2c(c1Cl)CC(Cc1ncccc1C(F)(F)F)C2=O` (stereo not drawn) [compound 179], the IC50 was above 1 µM in assay [1], below 0.5 µM in assay [2] and below 0.5 µM in assay [3].
For the compound `COc1cc2c(cc1N1CCOCC1)CC(Cc1ccc(C(F)(F)F)c(Cl)c1)C2=O` (stereo not drawn) [compound 92], the IC50 in assay [1], in assay [2] and in assay [3] was above 1 µM in each case.
On to `COc1ccc2c(c1)CC(Cc1ccc(SC(F)(F)F)cc1)C2=O` (stereo not drawn) [compound 182], for which the IC50 was above 1 µM in assay [1], below 0.5 µM in assay [2] and above 1 µM in assay [3].
For `COc1cc2c(cc1N1CCOCC1)CC(Cc1ncc(C(O)(C(F)(F)F)C(F)(F)F)cc1C(F)(F)F)C2=O` (stereo not drawn) [compound 268], the IC50 in assay [1], in assay [2] and in assay [3] was below 0.5 µM throughout.
With `COc1cc2c(cc1N1CCOCC1)CC(Cc1cc(C)n[nH]1)C2=O` (stereo not drawn) [compound 95], the IC50 in assay [1], in assay [2] and in assay [3] was above 1 µM each time.
Consider `COc1cc2c(cc1N1CCNCC1)CC(Cc1ccc(SC(F)(F)F)cc1)C2=O` (stereo not drawn) [compound 117], for which the IC50 in assay [1] is above 1 µM; in assay [2] it was above 1 µM; in assay [3], below 0.5 µM.
